Data as given in patent US11413278B2, “Compounds and methods for promoting stress resistance” (priority 2015, dated 2022).
Entries after “also recorded” stand apart in the source; their conditions may differ. Like-named read-outs stand apart in the source and are kept apart here.

How the values were obtained:
Format in all cases: cell-based, human
mTOR = mTOR inhibition (RPS6 phosphorylation status), In-Cell Western
Procedure, shortened: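 WI-38 cells exposed to compounds at 5, 10 and 20 μM for 24 hrs. Fixed cells co-stained overnight at 4° C with anti-RPS and anti-pRPS6 (Ser-235/236) antibodies, then DyLight 680/800 secondaries. Phospho-RPS6 relative to total RPS6 read by near-infrared In-Cell Western imaging.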

FOXO3 = assay: qPCR analysis of FOXO3-regulated genes; settings: for fold induction at 10 µM: Homo sapiens; for K = Sestrin induction: score
Procedure, shortened: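 WI-38 cells treated with compound at 10 μM for 24 h, followed by Cells-to-Ct RT-qPCR of FOXO3 target genes normalised to B2M, PPIA and GAPDH. FOXO3 or NRF2 dependence tested by prior 10 nM siRNA knockdown (36 h transfection, compound added ~24 h after replating).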

NRF2 = assay: qPCR analysis of NRF2-regulated genes; settings: for fold induction at 10 µM: Homo sapiens
Procedure, shortened: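 WI-38 cells treated with compound at 10 μM for 24 hrs, then processed by Cells-to-Ct for RNA isolation, RT and qPCR of NRF2-regulated genes (HMOX1, NQO1, GCLC, GSTM1). Expression normalized to B2M, PPIA and GAPDH; siRNA knockdown of FOXO3 or NRF2 (10 nM) preceded treatment in some runs.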

[1] = WI-38 cells, 10 μM, 24 hrs, n=4, qPCR normalized by B2M, read-out: DDB1 Normalized fold change
[2] = WI-38 cells, 10 μM, 24 hrs, n=4, qPCR normalized by B2M, read-out: GADD45A Normalized fold change
[3] = WI-38 cells, 10 μM, 24 hrs, n=4, qPCR normalized by B2M, read-out: SESN1 Normalized fold change
[4] = qPCR, WI-38 cells, 10 μM, n=4, 24 hrs, normalized by B2M, read-out: CAT Normalized fold change
[5] = qPCR, WI-38 cells, 10 μM, n=4, 24 hrs, normalized by B2M, read-out: SOD2 Normalized fold change
[6] = qPCR, WI-38 cells, 10 μM, n=4, 24 hrs, normalized by B2M, read-out: TXNIP Normalized fold change
[7] = 24 h, Assay 12(o), at 10 uM, qPCR, read-out: Induction of NRF2-regulated genes: NQO1 normalized fold-change
[8] = rounded fold change, WI-38 cells, 10 μM, 24 hrs (RP29 for Gr-4D), read-out: Summary of effects on NRF2-regulated genes: NQO1
[9] = 10 μM, 24 hrs, WI-38 cells, qPCR, normalized to B2M, n = 4, read-out: NQO1 expression, normalized fold change (NRF2-regulated gene)
[10] = WI-38 cells, 10 μM, 24 hrs, n=4, qPCR normalized by B2M, read-out: GCLC Normalized fold change
[11] = WI-38 cells, 10 μM, 24 hrs, n=4, qPCR normalized by B2M, read-out: GSTM1 Normalized fold change
[12] = WI-38 cells, 10 μM, 24 hrs, n=4, qPCR normalized by B2M, read-out: HMOX1 Normalized fold change
[13] = WI-38 cells, 10 μM, 24 hrs, n=4, qPCR normalized by B2M, read-out: NQO1 Normalized fold change

Structure (SMILES) | G = mTOR down-regulation (mTOR; 2-point score) | G = mTOR down-regulation (mTOR; summary score) | E = Potential FOXO3 Activation (FOXO3; 2-point score) | fold induction at 10 µM (FOXO3; [1]) | fold induction at 10 µM (FOXO3; [2]) | fold induction at 10 µM (FOXO3; [3]) | fold induction at 10 µM (FOXO3; [4]) | fold induction at 10 µM (FOXO3; [5]) | fold induction at 10 µM (FOXO3; [6]) | K = Sestrin induction (FOXO3) | E = Potential FOXO3 Activation (FOXO3; summary score) | F = Potential NRF2 Activation (NRF2; 2-point score) | fold induction at 10 µM (NRF2; [7]) | fold induction at 10 µM (NRF2; [8]) | fold induction at 10 µM (NRF2; [9]) | fold induction at 10 µM (NRF2; [10]) | fold induction at 10 µM (NRF2; [11]) | fold induction at 10 µM (NRF2; [12]) | fold induction at 10 µM (NRF2; [13]) | F = Potential NRF2 Activation (NRF2; summary score) | other results
CNC(=O)/C(C#N)=C/c1c(Oc2ccc(C(C)(C)C)cc2)nc2ccccn2c1=O [Gr-5D] | 0 | 0 | 0 | 0.984 | 0.698 | 1.1 | 1.27 | 1.12 | 0.669 | 0 | 0 | 2 | 1.78 | 1.78 | 1.78 | 0.886 | 1.17 | 2.49 | 1.78 | 2 | fold induction at 10 µM (FOXO3; 10 μM, 24 hrs, WI-38 cells, qPCR, normalized to B2M, n = 4, read-out: TXNIP expression, normalized fold change (FOXO3-regulated gene)): 0.67; fold induction at 10 µM (FOXO3; fold change, qPCR, WI-38 cells, 10 μM, 24 hrs, read-out: Summary of effects on FOXO3-regulated genes: TXNIP): 0.67; TXNIP expression, normalized fold change (printed in the column of NRF2-regulated genes) (NRF2; 10 μM, 24 hrs, WI-38 cells, qPCR, normalized to B2M, n = 4): TXNIP 0.67, fold; Induction of NRF2-regulated genes: TXNIP normalized fold-change (NRF2; Assay 12(o), at 10 uM, qPCR): TXNIP 0.67, fold-change; Potential NRF2 Activation (>=2 target genes induced, by >=1.5-fold) (NRF2; Assay 13(p)): YES; fold induction at 10 µM (NRF2; 24 h, Assay 12(o), at 10 uM, qPCR, read-out: Induction of NRF2-regulated genes: HMOX1 normalized fold-change): 2.49; fold induction at 10 µM (NRF2; rounded fold change, WI-38 cells, 10 μM, 24 hrs (RP11 for Gr-1D, RP29 for Gr-4D), read-out: Summary of effects on NRF2-regulated genes: HMOX1): 2.49; fold induction at 10 µM (NRF2; 10 μM, 24 hrs, WI-38, read-out: Expression of at least two NRF2 target genes): > 1.5; fold induction at 10 µM (NRF2; 10 μM, 24 hrs, WI-38 cells, qPCR, normalized to B2M, n = 4, read-out: HMOX1 expression, normalized fold change (NRF2-regulated gene)): 2.49; Summary of effects on NRF2-regulated genes: TXNIP (NRF2; fold change, WI-38 cells, 10 μM, 24 hrs): 0.67,
CCc1ccccc1NC(=O)c1ccc([N+](=O)[O-])o1 [Gr-1C] | 0 | 0 | 0 | 1.4 | 0.727 | 1.9 | 1.44 | 1.33 | 1.23 | 0 | 0 | 0 | 1.33 | 1.46 | 1.46 | 1.82 | 1.77 | 1.32 | 1.46 | 0 | Induction of at least two of five FOXO3-regulated genes (SOD2, GADD45A, CAT, DDB1, TXNIP) (FOXO3; 10 μM, 24 hrs, WI-38): significant induction; also recorded: induce FOXO3-regulated genes; fold induction at 10 µM (FOXO3; 24 h, Assay 10(m), at 10 uM, qPCR, read-out: Induction of FOXO3-regulated genes: CAT normalized fold-change): 1.41; fold induction at 10 µM (FOXO3; 24 h, Assay 10(m), at 10 uM, qPCR, read-out: Induction of FOXO3-regulated genes: DDB1 normalized fold-change): 1.14; fold induction at 10 µM (FOXO3; 24 h, Assay 10(m), at 10 uM, qPCR, read-out: Induction of FOXO3-regulated genes: GADD45A normalized fold-change): 0.6; fold induction at 10 µM (FOXO3; 24 h, Assay 10(m), at 10 uM, qPCR, read-out: Induction of FOXO3-regulated genes: SESN1 normalized fold-change): 1.59; fold induction at 10 µM (FOXO3; WI-38, 24 h, read-out: SESN1 expression): > 1.5; fold induction at 10 µM (FOXO3; 10 μM, 24 hrs, WI-38 cells, qPCR, normalized to B2M, n = 4, read-out: CAT expression, normalized fold change (FOXO3-regulated gene)): 1.44; fold induction at 10 µM (FOXO3; fold change, qPCR, WI-38 cells, 10 μM, 24 hrs, read-out: Summary of effects on FOXO3-regulated genes: CAT): 1.44; Induction of at least two NRF2-regulated genes (HMOX1, NQO1, GCLC, GSTM1) (NRF2; 10 μM, 24 hrs, WI-38): could induce expression of at least two genes; fold induction at 10 µM (NRF2; 24 h, Assay 12(o), at 10 uM, qPCR, read-out: Induction of NRF2-regulated genes: GCLC normalized fold-change): 1.65; fold induction at 10 µM (NRF2; rounded fold change, WI-38 cells, 10 μM, 24 hrs, read-out: Summary of effects on NRF2-regulated genes: GCLC): 1.82; fold induction at 10 µM (NRF2; 10 μM, 24 hrs, WI-38 cells, qPCR, normalized to B2M, n = 4, read-out: GCLC expression, normalized fold change (NRF2-regulated gene)): 1.82
